From US9924717B2, “Molecules having pesticidal utility, and intermediates, compositions, and processes, related thereto” (Dow AgroSciences LLC, priority 2016, dated 2018)
Read-outs that look alike come from different tables or passages of the source.

Tests used:
[1] = test system: Cabbage Looper (Trichoplusia ni, TRIPNI) (CL); assay: Bioassays on Cabbage Looper (CL), 128-well diet tray assay; format: in vivo; conditions: for pest or weed control at 50 µg/cm2: Table ABC rating, Cabbage Looper; for mortality at 5 µg/cm2: 168 h, diet tray, second instar larvae, five to seven days, read-out: Percent control (or mortality) CL
Procedure: (§1) Example A: Bioassays on Beet Armyworm (Spodoptera exigua, LAPHEG) (“BAW”), Corn Earworm (Helicoverpa zea, Helize) (“CEW”), and Cabbage Looper (Trichoplusia ni, TRIPNI) (“CL”)
(§2) Certain molecules disclosed in this document were tested against BAW, CEW, and CL using procedures described in the following examples. In the reporting of the results, the “BAW, CEW, & CL Rating Table” was used (See Table Section).
Bioassays on CL were conducted using a 128-well diet tray assay. one to five second instar CL larvae were placed in each well (3 mL) of the diet tray that had been previously filled with 1 mL of artificial diet to which 50 μg/cm^2 of the test molecule (dissolved in 50 μL of 90:10 acetone-water mixture) had been applied (to each of eight wells) and then allowed to dry. Trays were covered with a clear self-adhesive cover and held at 25° C., 14:10 light-dark for five to seven days. Percent mortality was recorded for the larvae in each well; activity in the eight wells was then averaged. The results are indicated in the table entitled “Table ABC: Biological Results” (See Table Section).
(§3) Bioassays on BAW and CL were conducted according to the procedures outlined in Example A: Bioassays on Beet Armyworm (“BAW”) and Cabbage Looper (“CL”) using the indicated concentrations.

[2] = test system: Beet Armyworm (Spodoptera exigua, LAPHEG) (BAW); assay: Bioassays on Beet Armyworm (BAW), 128-well diet tray assay; format: in vivo; conditions: for pest or weed control at 50 µg/cm2: Table ABC rating, Beet Armyworm; for mortality at 5 µg/cm2: 168 h, diet tray, second instar larvae, five to seven days, read-out: Percent control (or mortality) BAW
Procedure: as §1, §2
Bioassays on BAW were conducted using a 128-well diet tray assay. one to five second instar BAW larvae were placed in each well (3 mL) of the diet tray that had been previously filled with 1 mL of artificial diet to which 50 μg/cm^2 of the test molecule (dissolved in 50 μL of 90:10 acetone-water mixture) had been applied (to each of eight wells) and then allowed to dry. Trays were covered with a clear self-adhesive cover and held at 25° C., 14:10 light-dark for five to seven days. Percent mortality was recorded for the larvae in each well; activity in the eight wells was then averaged. The results are indicated in the table entitled “Table ABC: Biological Results” (See Table Section).
as §3

[3] = 5 μg/cm^2 (first BAW/CL column pair)
[4] = 5 μg/cm^2 as printed (second BAW/CL column pair)

## O=C(NC1CCCC(F)(F)C1)c1ccc(/C(F)=C/C(c2cc(Cl)c(Cl)c(Cl)c2)C(F)(F)F)cc1C(F)(F)F (centres unmarked) [F13, (Z)—N-(3,3-Difluorocyclohexyl)-4-(1,4,4,4-tetrafluoro-3-(3,4,5-trichlorophenyl)but-1-en-1-yl)-2-(trifluoromethyl)benzamide]
[1]
  pest or weed control at 50 µg/cm2: 50 to 100%
[2]
  pest or weed control at 50 µg/cm2: 50 to 100%

## O=C(NC1CSC1)c1ccc(/C(F)=C/C(c2cc(Cl)c(Cl)c(Cl)c2)C(F)(F)F)cc1C(F)(F)F (centres unmarked) [PF2, (Z)-4-(1,4,4,4-Tetrafluoro-3-(3,4,5-trichlorophenyl)but-1-en-1-yl)-N-(thietan-3-yl)-2-(trifluoromethyl)benzamide]
[1]
  pest or weed control at 50 µg/cm2: 50 to 100%
[2]
  pest or weed control at 50 µg/cm2: 50 to 100%

## O=C(NC1CCC(F)(F)CC1)c1ccc(/C(F)=C/C(c2cc(Cl)c(Cl)c(Cl)c2)C(F)(F)F)cc1Cl (centres unmarked) [F9, (Z)-2-Chloro-N-(4,4-difluorocyclohexyl)-4-(1,4,4,4-tetrafluoro-3-(3,4,5-trichlorophenyl)but-1-en-1-yl)benzamide]
[1]
  pest or weed control at 50 µg/cm2: 50 to 100%
[2]
  pest or weed control at 50 µg/cm2: 50 to 100%

## Cc1cc(C(/C=C(\F)c2ccc(C(=O)NC3CC3)c(C(F)(F)F)c2)C(F)(F)F)cc(C)c1Cl (centres unmarked) [F37, (Z)-4-(3-(4-Chloro-3,5-dimethylphenyl)-1,4,4,4-tetrafluorobut-1-en-1-yl)-N-cyclopropyl-2-(trifluoromethyl)benzamide]
[1]
  pest or weed control at 50 µg/cm2: 50 to 100%
[2]
  pest or weed control at 50 µg/cm2: 50 to 100%

## O=C(NCC(F)(F)F)c1ccc(/C(F)=C/C(c2cc(Cl)c(Cl)c(Cl)c2)C(F)(F)F)cc1 (centres unmarked) [FC1, (Z)-4-(1,4,4,4-tetrafluoro-3-(3,4,5-trichlorophenyl)but-1-en-1-yl)-N-(2,2,2-trifluoroethyl)benzamide]
[1]; [3]
  mortality at 5 µg/cm2: 100%
[1]; [4]
  mortality at 5 µg/cm2: 6%
[2]; [3]
  mortality at 5 µg/cm2: 25%
[2]; [4]
  mortality at 5 µg/cm2: 0%

## O=CNC(=O)c1ccc(/C(F)=C/C(c2cc(Cl)c(Cl)c(Cl)c2)C(F)(F)F)cc1C(F)(F)F (centres unmarked) [F20, (Z)—N-Formyl-4-(1,4,4,4-tetrafluoro-3-(3,4,5-trichlorophenyl)but-1-en-1-yl)-2-(trifluoromethyl)benzamide]
[1]
  pest or weed control at 50 µg/cm2: 50 to 100%
[2]
  pest or weed control at 50 µg/cm2: 50 to 100%

## Cc1ccc([C@@H](C)NC(=O)c2ccc(/C(F)=C/C(c3cc(Cl)c(Cl)c(Cl)c3)C(F)(F)F)cc2C(F)(F)F)cc1 (stereo partly drawn) [F8, 4-((Z)-1,4,4,4-Tetrafluoro-3-(3,4,5-trichlorophenyl)but-1-en-1-yl)-N—((R)-1-(p-tolyl)ethyl)-2-(trifluoromethyl)benzamide]
[1]
  pest or weed control at 50 µg/cm2: 50 to 100%
[2]
  pest or weed control at 50 µg/cm2: 50 to 100%

## O=C(NC1CC1)c1ccc(/C(F)=C/C(c2ccc(Cl)c(Cl)c2)C(F)(F)F)cc1C(F)(F)F (centres unmarked) [F35, (Z)—N-Cyclopropyl-4-(3-(3,4-dichlorophenyl)-1,4,4,4-tetrafluorobut-1-en-1-yl)-2-(trifluoromethyl)benzamide]
[1]
  pest or weed control at 50 µg/cm2: 50 to 100%
[2]
  pest or weed control at 50 µg/cm2: 50 to 100%

## O=C(NC1CC(F)(F)C1)c1ccc(/C(F)=C/C(c2ccc(F)c(Cl)c2)C(F)(F)F)cc1C(F)(F)F (centres unmarked) [F63, (Z)-4-(3-(3-Chloro-4-fluorophenyl)-1,4,4,4-tetrafluorobut-1-en-1-yl)-N-(3,3-difluorocyclobutyl)-2-(trifluoromethyl)benzamide]
[1]
  pest or weed control at 50 µg/cm2: 50 to 100%
[2]
  pest or weed control at 50 µg/cm2: 50 to 100%

## COc1cccc([C@@H](C)NC(=O)c2ccc(/C(F)=C/C(c3cc(Cl)c(Cl)c(Cl)c3)C(F)(F)F)cc2C(F)(F)F)c1 (stereo partly drawn) [F14, N—((R)-1-(3-Methoxyphenyl)ethyl)-4-((Z)-1,4,4,4-tetrafluoro-3-(3,4,5-trichlorophenyl)but-1-en-1-yl)-2-(trifluoromethyl)benzamide]
[1]
  pest or weed control at 50 µg/cm2: 50 to 100%
[2]
  pest or weed control at 50 µg/cm2: 50 to 100%

## CC(NC(=O)c1ccc(/C(F)=C/C(c2cc(Cl)c(Br)c(Cl)c2)C(F)(F)F)cc1C(F)(F)F)C(F)(F)F (centres unmarked) [F38, 4-((Z)-3-(4-Bromo-3,5-dichlorophenyl)-1,4,4,4-tetrafluorobut-1-en-1-yl)-2-(trifluoromethyl)-N-(1,1,1-trifluoropropan-2-yl)benzamide]
[1]
  pest or weed control at 50 µg/cm2: 50 to 100%
[2]
  pest or weed control at 50 µg/cm2: 50 to 100%

## O=C(NCC(F)(F)F)c1ccc(/C(F)=C/C(c2cc(Cl)c(Cl)c(Cl)c2)C(F)(F)F)cc1C(F)(F)F (centres unmarked) [F1, (Z)-4-(1,4,4,4-tetrafluoro-3-(3,4,5-trichlorophenyl)but-1-en-1-yl)-N-(2,2,2-trifluoroethyl)-2-(trifluoromethyl)benzamide]
[1]; [3]
  mortality at 5 µg/cm2: 100%
[1]; [4]
  mortality at 5 µg/cm2: 100%
[1]
  pest or weed control at 50 µg/cm2: 50 to 100%
[2]; [3]
  mortality at 5 µg/cm2: 100%
[2]; [4]
  mortality at 5 µg/cm2: 100%
[2]
  pest or weed control at 50 µg/cm2: 50 to 100%

## O=C(c1ccc(/C(F)=C/C(c2cc(Cl)c(Cl)c(Cl)c2)C(F)(F)F)cc1C(F)(F)F)N1CCCC1 (centres unmarked) [F6, (Z)-Pyrrolidin-1-yl(4-(1,4,4,4-tetrafluoro-3-(3,4,5-trichlorophenyl)but-1-en-1-yl)-2-(trifluoromethyl)phenyl) methanone]
[1]
  pest or weed control at 50 µg/cm2: 50 to 100%
[2]
  pest or weed control at 50 µg/cm2: 50 to 100%

## NC(=O)c1ccc(/C(F)=C/C(c2cc(Cl)c(Cl)c(Cl)c2)C(F)(F)F)cc1C(F)(F)F (centres unmarked) [F17, (Z)-4-(1,4,4,4-Tetrafluoro-3-(3,4,5-trichlorophenyl)but-1-en-1-yl)-2-(trifluoromethyl)benzamide]
[1]
  pest or weed control at 50 µg/cm2: 50 to 100%
[2]
  pest or weed control at 50 µg/cm2: 50 to 100%

## CC(NC(=O)c1ccc(/C(F)=C/C(c2cc(Br)c(Cl)c(Br)c2)C(F)(F)F)cc1C(F)(F)F)C(F)(F)F (centres unmarked) [F36, 4-((Z)-3-(3,5-Dibromo-4-chlorophenyl)-1,4,4,4-tetrafluorobut-1-en-1-yl)-2-(trifluoromethyl)-N-(1,1,1-trifluoropropan-2-yl)benzamide]
[1]
  pest or weed control at 50 µg/cm2: 50 to 100%
[2]
  pest or weed control at 50 µg/cm2: 50 to 100%

## O=C(c1ccc(/C(F)=C/C(c2cc(Cl)c(Cl)c(Cl)c2)C(F)(F)F)cc1Br)N1CCCC1 (centres unmarked) [F5, (Z)-(2-Bromo-4-(1,4,4,4-tetrafluoro-3-(3,4,5-trichlorophenyl)but-1-en-1-yl)phenyl)(pyrrolidin-1-yl)methanone]
[1]
  pest or weed control at 50 µg/cm2: 50 to 100%
[2]
  pest or weed control at 50 µg/cm2: 50 to 100%

## N#CC1(NC(=O)c2ccc(/C(F)=C/C(c3cc(Cl)c(Cl)c(Cl)c3)C(F)(F)F)cc2C(F)(F)F)CC1 (centres unmarked) [F62, (Z)—N-(1-Cyanocyclopropyl)-4-(1,4,4,4-tetrafluoro-3-(3,4,5-trichlorophenyl)but-1-en-1-yl)-2-(trifluoromethyl)benzamide]
[1]
  pest or weed control at 50 µg/cm2: 50 to 100%
[2]
  pest or weed control at 50 µg/cm2: 50 to 100%

## CC(NC(=O)c1ccc(/C(F)=C/C(c2cc(Cl)c(Cl)c(Cl)c2)C(F)(F)F)cc1C(F)(F)F)C(F)(F)F (centres unmarked) [F2, (Z)-4-(1,4,4,4-Tetrafluoro-3-(3,4,5-trichlorophenyl)but-1-en-1-yl)-2-(trifluoromethyl)-N-(1,1,1-trifluoropropan-2-yl)benzamide]
[1]
  pest or weed control at 50 µg/cm2: 50 to 100%
[2]
  pest or weed control at 50 µg/cm2: 50 to 100%

## C[C@H](CNCC(F)(F)F)NC(=O)c1ccc(/C(F)=C/C(c2cc(Cl)c(Cl)c(Cl)c2)C(F)(F)F)cc1C(F)(F)F (stereo partly drawn) [F61, 4-((Z)-1,4,4,4-Tetrafluoro-3-(3,4,5-trichlorophenyl)but-1-en-1-yl)-N—((R)-1-((2,2,2-trifluoroethyl)amino)propan-2-yl)-2-(trifluoromethyl)benzamide]
[1]
  pest or weed control at 50 µg/cm2: 50 to 100%
[2]
  pest or weed control at 50 µg/cm2: 50 to 100%

## O=C(NC1CCC(F)(F)CC1)c1ccc(/C(F)=C/C(c2cc(Cl)c(Cl)c(Cl)c2)C(F)(F)F)cc1C(F)(F)F (centres unmarked) [F4, (Z)—N-(4,4-Difluorocyclohexyl)-4-(1,4,4,4-tetrafluoro-3-(3,4,5-trichlorophenyl)but-1-en-1-yl)-2-(trifluoromethyl)benzamide]
[1]
  pest or weed control at 50 µg/cm2: 50 to 100%
[2]
  pest or weed control at 50 µg/cm2: 50 to 100%

## O=C(NC1CCC(F)(F)CC1)c1ccc(/C(F)=C/C(c2cc(Cl)c(Cl)c(Cl)c2)C(F)(F)F)cc1Br (centres unmarked) [F10, (Z)-2-Bromo-N-(4,4-difluorocyclohexyl)-4-(1,4,4,4-tetrafluoro-3-(3,4,5-trichlorophenyl)but-1-en-1-yl)benzamide]
[1]
  pest or weed control at 50 µg/cm2: 50 to 100%
[2]
  pest or weed control at 50 µg/cm2: 50 to 100%

## O=C(NC1CS(=O)(=O)C1)c1ccc(/C(F)=C/C(c2cc(Cl)c(Cl)c(Cl)c2)C(F)(F)F)cc1C(F)(F)F (centres unmarked) [PF4, (Z)—N-(1,1-Dioxidothietan-3-yl)-4-(1,4,4,4-tetrafluoro-3-(3,4,5-trichlorophenyl)but-1-en-1-yl)-2-(trifluoromethyl)benzamide]
[1]
  pest or weed control at 50 µg/cm2: 50 to 100%
[2]
  pest or weed control at 50 µg/cm2: 50 to 100%
